Results as given in article PMC9544171, “Glucose‐dependent insulinotropic polypeptide receptor antagonist treatment causes a reduction in weight gain in ovariectomised high fat diet‐fed mice” (British Journal of Pharmacology, 2022).
Where a SMILES comes first, the peptide text is derived from it. The star is where a group is joined. C16 diacid = O=C(O)CCCCCCCCCCCCCCC(=O)*

Key:
[1] = tested on: Female ovariectomised C57Bl6/J mice; assay: HFD study in ovariectomised mice, body weight and composition, 8 weeks; type: in vivo, mouse
Experimental: Prior to bilateral ovariectomy surgery and once daily for 48 h following, mice received analgesics through s.c. injection of carprofen (Rimadyl; 5 mg·kg^−1). Anaesthesia was induced in an induction chamber with 5% isoflurane and maintained with 2% isoflurane through a nose cone during the procedure. Proper respiration was ensured with a flow of oxygen through the nose cone and body temperature was maintained at 37°C by placing the mice on a heating pad. Mice were placed in a prone position on a sterile surgery pad and the area of incision was shaved and sterilized with 70% ethanol. Two dorsal‐lateral incisions were made and the ovary and attached fat pad were individually pulled out of the abdominal cavity. The fallopian tubes were ligated and the ovaries were dissected, then the fat pad was carefully placed back in the abdominal cavity. The skin incision was closed using wound clips (Reflex, Alzet, Cupertino, CA, USA). In half of the animals, a microtransponder (Datamars, Lamone, Switzerland) was inserted and animals were placed in an HM‐2 cage with the intention to measure food intake (MBrose, Faaborg, Denmark) and left to recover and acclimatize for a week. The remaining animals were placed back in their home cages to recover for a week. The division of mice into HM‐2 cages and home cages was randomized. Uterine atrophy was confirmed in all mice upon termination of the study, indicating successful ovariectomy.
A week after ovariectomy, at 10 weeks of age, animals were randomized into groups and placed on a 60 kcal% HFD (HFD, D12492, Research Diets, New Brunswick, NJ, USA) or a control diet (10 kcal% fat, D12450J, Research Diets) for 8 weeks. Group sizes were as follows: Vehicle/control diet, n = 12; mGIPAnt‐1/control diet, n = 12; Vehicle/HFD, n = 11; mGIPAnt‐1/HFD, n = 12. The reduction of animal numbers in group Vehicle/HFD was due to unexpected loss of an animal. Animals received a daily s.c. injection at 4:30 PM with mGIPAnt‐1 (300‐nmol·kg^−1) or vehicle. Body weight and body composition were assessed weekly (LF90II body composition analyzer, Bruker, Billerica, MA, USA). On the final experimental day, animals were anaesthetized with an intraperitoneal injection of 90 mg·kg^−1 ketamine and 10‐mg·kg^−1 xylazine. The microchip was quickly removed from HM‐2 cage animals and a final body composition measurement was performed on all animals. A terminal retro‐orbital blood sample was taken, mice were killed through cervical dislocation and tissues were quickly dissected and weighed.

[2] = molecular target: T1, mouse GLP‐1 receptor (Mus musculus, UniProt O35659); assay: cAMP accumulation, agonism in transfected COS‐7 cells; type: cell-based; conditions: increasing concentrations, COS‐7, n = 5
T1 construct: host or cells: COS-7
T1 sequence (O35659 22-463): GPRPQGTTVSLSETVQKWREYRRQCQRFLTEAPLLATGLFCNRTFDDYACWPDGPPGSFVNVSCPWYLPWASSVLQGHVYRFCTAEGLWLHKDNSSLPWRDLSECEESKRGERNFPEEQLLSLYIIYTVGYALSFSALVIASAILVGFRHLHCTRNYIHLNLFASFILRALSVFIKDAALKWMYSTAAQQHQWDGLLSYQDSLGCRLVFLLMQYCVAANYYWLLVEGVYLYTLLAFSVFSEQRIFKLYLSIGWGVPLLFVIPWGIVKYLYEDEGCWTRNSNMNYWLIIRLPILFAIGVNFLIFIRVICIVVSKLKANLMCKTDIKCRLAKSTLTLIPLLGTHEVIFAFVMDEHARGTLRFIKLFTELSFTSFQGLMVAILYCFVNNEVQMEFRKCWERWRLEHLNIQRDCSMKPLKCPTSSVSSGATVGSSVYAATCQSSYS

[3] = molecular target: T2, mouse GLP‐2 receptor (Mus musculus, UniProt Q5IXF8); assay: as above; type: cell-based; conditions: increasing concentrations, COS‐7, n = 5
T2 construct: host or cells: COS-7
T2 sequence (Q5IXF8 1-512): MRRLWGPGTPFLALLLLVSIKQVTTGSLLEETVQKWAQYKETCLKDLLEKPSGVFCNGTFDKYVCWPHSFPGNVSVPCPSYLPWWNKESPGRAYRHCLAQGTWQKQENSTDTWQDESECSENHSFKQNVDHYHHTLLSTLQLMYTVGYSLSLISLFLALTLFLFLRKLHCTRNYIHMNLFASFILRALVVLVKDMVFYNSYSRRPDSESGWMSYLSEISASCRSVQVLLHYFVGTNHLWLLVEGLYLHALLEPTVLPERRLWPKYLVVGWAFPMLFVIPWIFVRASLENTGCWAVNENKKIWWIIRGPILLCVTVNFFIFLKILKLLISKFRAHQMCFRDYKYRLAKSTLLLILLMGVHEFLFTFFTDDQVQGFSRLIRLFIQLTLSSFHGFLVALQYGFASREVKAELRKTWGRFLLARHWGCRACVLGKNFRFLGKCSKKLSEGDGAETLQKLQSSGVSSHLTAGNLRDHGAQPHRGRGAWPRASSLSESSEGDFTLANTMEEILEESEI
Experimental: COS‐7 cells were cultured at 10% CO2 and 37°C in Dulbecco's Modified Eagle Medium 1885 supplemented with 10% foetal bovine serum, 2‐mM glutamine, 180‐units ml^−1 penicillin and […] streptomycin. Transient transfection of the cells with either human or mouse GIP receptor was performed using the calcium phosphate precipitation method as previously described (van der Velden et al., [2021]). A second set of cells was transiently transfected with either mouse GLP‐1 or GLP‐2 receptor. Following the day after transfection, the cells were seeded in white 96‐well plates with a density of 35.000 cells per well. The next day the assay was initiated by washing the cells with HEPES buffered saline (HBS) followed by an incubation step with HBS and 1‐mM 3‐isobutyl‐1‐methylxanthine for 30 min at 37°C. For agonist studies, the ligands were then added and incubated for an additional 30 min at 37°C. To test for antagonistic properties, the cells were first preincubated for 10 min with the antagonist with subsequent addition of the agonist and incubated for an additional 20 min. The HitHunter® cAMP assay (Eurofins DiscoverX, Fremont, USA) was carried out according to the manufacturer's protocol. Luminescence was measured by PerkinElmer™ Envision 2014 Multilabel Reader.
FIGURE 2 In vitro signalling profile of mGIPAnt‐1 on the mouse GLP‐1 and GLP‐2 receptor (R). […]

CC[C@H](C)[C@H](NC(=O)[C@H](CO)NC(=O)[C@H](Cc1ccc(O)cc1)NC(=O)[C@H](CC(=O)O)NC(=O)[C@H](CO)NC(=O)[C@@H](NC(=O)[C@H](Cc1ccccc1)NC(=O)[C@@H](NC(=O)CNC(=O)[C@@H](N)CCC(=O)O)[C@@H](C)O)[C@@H](C)CC)C(=O)N[C@@H](C)C(=O)N[C@@H](CCSC)C(=O)N[C@@H](CC(=O)O)C(=O)N[C@@H](CCCCN)C(=O)N[C@H](C(=O)N[C@@H](CCCCNC(=O)CCCCCCCCCCCCCCC(=O)O)C(=O)N[C@@H](CCC(N)=O)C(=O)N[C@@H](CCC(N)=O)C(=O)N[C@@H](CC(=O)O)C(=O)N[C@@H](Cc1ccccc1)C(=O)N[C@H](C(=O)N[C@@H](CC(N)=O)C(=O)N[C@@H](Cc1c[nH]c2ccccc12)C(=O)N[C@@H](CC(C)C)C(=O)N[C@@H](CC(C)C)C(=O)N[C@@H](C)C(=O)N[C@@H](CCC(N)=O)C(=O)N[C@@H](CCCCN)C(=O)NCC(=O)N[C@@H](CCCCN)C(=O)N[C@@H](CCCCN)C(=O)N[C@@H](CC(N)=O)C(=O)N[C@@H](CC(=O)O)C(=O)N[C@@H](Cc1c[nH]c2ccccc12)C(=O)N[C@@H](CCCCN)C(=O)N[C@@H](Cc1c[nH]cn1)C(=O)N[C@@H](CC(N)=O)C(=O)O)C(C)C)[C@@H](C)CC [mGIPAnt‐1] (H-EGTFISDYSIAMDKIK(C16 diacid)QQDFVNWLLAQKGKKNDWKHN-OH)
final lean body mass ([1]; 300 nmol·kg−1 s.c. daily, 8 weeks): not affected | body weight, HFD ([1]; 300 nmol·kg−1 s.c. daily, 8 weeks, 60 kcal% HFD, versus Vehicle/HFD, n = 11–12): body weight in the control, HFD group was significantly higher compared to the mGIPAnt‐1/HFD group | absolute body weight, control diet ([1]; 300 nmol·kg−1 s.c. daily, 8 weeks, control diet, n = 12): not affected | total body weight gain, overall treatment effect ([1]; 300 nmol·kg−1 s.c. daily, 8 weeks, two‐way ANOVA): reducing total body weight gain | body fat percentage, HFD ([1]; at 6 and 8 weeks, 300 nmol·kg−1 s.c. daily, versus Control/HFD, n = 6): Control/HFD animals significantly increased body fat percentage compared to mGIPAnt‐1/HFD animals | BAT weight ([1]; terminal): not affected | eWAT weight, control diet ([1]; terminal): did not affect | iWAT weight, control diet ([1]; terminal): did not affect | liver weight ([1]; terminal): not affected | eWAT weight, HFD ([1]; terminal, versus Vehicle/HFD): reduced | iWAT weight, HFD ([1]; terminal, versus Vehicle/HFD): reduced | activation of mouse GLP‐1 receptor (cAMP) [2]: does not induce activation | activation of mouse GLP‐2 receptor (cAMP) [3]: does not induce activation
